Laboratory results as given in patent US20210063414A1, “METHODS FOR PREVENTING AND/OR TREATING BONE LOSS CONDITIONS BY MODULATING IRISIN” (Dana-Farber Cancer Institute, Inc., priority 2018, published 2021).

Tests used:
[1] = tested on: his-tag integrins; assay: Irisin-integrin binding in presence of RGDS or control peptide, co-immunoprecipitation; design: species or system human; conditions: 100 nM flag-tag irisin, 5 nM his-tag integrins, 10 uM peptide, vs control RGD peptide
Protocol: 100 nM flag-tag irisin was incubated with 5 nM of indicated integrins with his-tag in the presence of RGDS peptide or its control peptide (10 uM). This was followed by immunoprecipitation using anti-his-tag agarose. Co-precipitated irisin was analyzed by immunoblot analysis with antibody against flag tag.
Certain materials and methods were used to generate the results described herein. For example, the data shown in FIG. 1A resulted from MLO-Y4 (an osteocyte-like cell line) cells treated with the indicated concentration of irisin and hydrogen peroxide for 4 hours. Cells were stained with Hoechst 33342 (ThermoFisher Scientific, catalog number H3570) and Eth-D1 (ThermoFisher Scientific, catalog number E1169) and analyzed to determine the percentage of cell death using ImageJ. […] Co-precipitated irisin was analyzed by immunoblot analysis against flag tag (Sigma Aldrich, catalog number A8592). The data shown in FIGS. 5A and 5B were generated from MLO-Y4 cells treated and analyzed as in the experiments used to generate the data shown in FIG. 2D, except that pre-treatment of 100 nM RGDS (FIG. 5A) or echistatin (R & D Systems Inc., catalog number 3202/100U) (FIG. 5B) for 10 minutes was performed before irisin treatment. […] Sclerostin mRNA level was analyzed by qPCR (FIG. 7A). […]

[2] = tested on: primary inguinal fat cells; assay: Ucp1 mRNA in primary inguinal fat cells; format: cell-based, mice; conditions: 10 μM peptide
Protocol: FIG. 18A-FIG. 18B show mRNA and protein levels of indicated genes. 1 mg/kg irisin was injected to 8-week old mice every other day for 6 days. mRNA levels of indicated genes in inguinal fat were analyzed by qRT-PCR. Cyclophilin was used for housekeeping gene (FIG. 18A). Inguinal fats were also lysed to detect the indicated protein level using immunoblot analysis (FIG. 18B). FIGS. 18C and 18D show mRNA and protein levels of indicated genes. Mice were treated and analyzed as (A-B) with addition of coinjection of […] control RGD peptide or cyclo RGDyK (cRGDyK). mRNA levels of indicated genes in inguinal fat were analyzed by qRT-PCR. Cyclophilin was used for house-keeping gene (FIG. 18C). Inguinal fats were also lysed to detect the indicated protein level using immunoblot analysis (FIG. 18D). […] Ucp1 mRNA level was analyzed by qRT-PCR. […]
Inguinal fat tissue from 6 weeks old mice was dissected and washed with PBS, minced and digested for 1 hour at 37° C. in PBS containing 10 mM CaCl2, 2.4 U/ml dispase II (Roche) and 10 mg/ml collagenase D (Roche). […] After that, cells were maintained in 1 μM rosiglitazone in the presence of 0, 0.5, 5 or 50 ng/ml recombinant […] his-tag irisin protein for 4 days with medium change every other day. mRNA levels were analyzed as described in gene expression analysis. […]

Row | Molecule | effect on irisin binding to integrins [1] | effect on irisin binding to integrins ([1]; listed as RGDS) | effect on irisin-induced gene expression (Ucp1) [2]
1 | RGDS peptide: classical integrin competitive inhibitory peptide, commercially available form of the RGD peptide | inhibited much of the irisin binding | blocked | 
2 | N=C(N)NCCC[C@@H]1NC(=O)[C@H](CCCCN)NC(=O)[C@@H](Cc2ccc(O)cc2)NC(=O)[C@H](CC(=O)O)NC(=O)CNC1=O [cyclo RGDyK] |  |  | prevented irisin-induced gene expression
